Values belong to the molecule of their own block, whether it stands above or below them. Calls of active or inactive are those of the source. No cut-off for these calls is given here. Where a SMILES comes first, the peptide text is derived from it.
Experiments:
[1] = Drug localization in cytoplasm of Escherichia coli ATCC 25922 at 3 times MIC by confocal microscopy; assay type: ADME, subcellular
Staphylococcus aureus [2] = experiment: Antibacterial activity against Staphylococcus aureus ATCC 25923 incubated for 16 to 18 hrs in presence of 10 percent human serum by broth dilution assay; assay type: functional; details: time 16-18 hrs
Staphylococcus aureus [3] = experiment: Disruption of plasma membrane integrity in Staphylococcus aureus ATCC 25923 by SYTOX-Green uptake assay; assay type: functional, organism-based
Bacillus subtilis = experiment: Antibacterial activity against Bacillus subtilis 6633 incubated for 16 to 18 hrs by broth dilution assay; assay type: functional; details: time 16-18 hrs
Escherichia coli [4] = experiment: Disruption of plasma membrane integrity in Escherichia coli ATCC 25922 by SYTOX-Green uptake assay; assay type: functional, organism-based
Staphylococcus aureus [5] = experiment: Disruption of membrane integrity in Staphylococcus aureus ATCC 25923 by PI staining based analysis; assay type: functional, organism-based
Staphylococcus aureus [6] = experiment: Antibacterial activity against Staphylococcus aureus ATCC 25923 incubated for 16 to 18 hrs by broth dilution assay; assay type: functional; details: time 16-18 hrs
[7] = Cytotoxicity against mouse 3T3-L1 cells assessed as cell viability at 100 uM incubated for 24 hrs by MTT assay relative to control; assay type: toxicity, cell-based; details: 3T3-L1 cells, read-out: Activity
Escherichia coli [8] = experiment: Antibacterial activity against Escherichia coli ATCC 25922 incubated for 16 to 18 hrs by broth dilution assay; assay type: functional; details: time 16-18 hrs
Staphylococcus aureus [9] = experiment: Induction of membrane depolarization in Staphylococcus aureus ATCC 25923 by diSC3-5 dye based analysis; assay type: functional, organism-based
Staphylococcus aureus [10] = experiment: Antibacterial activity against methicillin-resistant Staphylococcus aureus 33591 incubated for 16 to 18 hrs by broth dilution assay; assay type: functional; details: time 16-18 hrs
Escherichia coli [11] = experiment: Bactericidal activity against Escherichia coli ATCC 25922 at MIC incubated for about 100 mins by time kill assay relative to control; assay type: functional; details: 1.667 h
Staphylococcus aureus [12] = experiment: Bactericidal activity against Staphylococcus aureus ATCC 25923 incubated for 16 to 18 hrs; assay type: functional; details: time 16-18 hrs
Escherichia coli [13] = experiment: Disruption of membrane integrity in Escherichia coli ATCC 25922 by PI staining based analysis; assay type: functional, organism-based
Escherichia coli [14] = experiment: Antibacterial activity against Escherichia coli ATCC 25922 incubated for 16 to 18 hrs in presence of 10 percent human serum by broth dilution assay; assay type: functional; details: time 16-18 hrs
Klebsiella pneumoniae = experiment: Antibacterial activity against Klebsiella pneumoniae ATCC 27736 incubated for 16 to 18 hrs by broth dilution assay; assay type: functional; details: time 16-18 hrs
Escherichia coli [15] = experiment: Induction of membrane depolarization in Escherichia coli ATCC 25922 by diSC3-5 dye based analysis; assay type: functional, organism-based
[16] = Cytotoxicity against rat L6 cells assessed as cell viability at 100 uM incubated for 24 hrs by MTT assay relative to control; assay type: toxicity, cell-based; details: L6 cells, read-out: Activity
[17] = system: Mycolicibacterium smegmatis; experiment: Antitubercular activity against Mycobacterium smegmatis incubated for 24 hrs by rezasurin dye based assay; assay type: functional
[18] = Hemolytic activity in human RBC measured after 40 mins by absorbance based assay; assay type: toxicity, cell-based, Erythrocyte; details: human red blood cells
[19] = Retention time of compound by RP-HPLC method; assay type: physicochemical
Staphylococcus aureus [20] = experiment: Antibacterial activity against methicillin-resistant Staphylococcus aureus BAA-44 incubated for 16 to 18 hrs by broth dilution assay; assay type: functional; details: time 16-18 hrs
[21] = Hemolytic activity in human RBC assessed as disruption of membrane integrity by Alexa Fluor-Annexin V staining based analysis; assay type: toxicity, cell-based; details: erythrocyte
Staphylococcus aureus [22] = experiment: Bactericidal activity against Staphylococcus aureus ATCC 25923 at MIC incubated for about 135 mins by time kill assay relative to control; assay type: functional; details: 2.25 h
Escherichia coli [23] = experiment: Induction of cell membrane damage in Escherichia coli ATCC 25922 at 3 times MIC incubated for 60 mins by SEM analysis; assay type: functional, organism-based
Staphylococcus aureus [24] = experiment: Induction of cell membrane damage in Staphylococcus aureus ATCC 25923 at 3 times MIC incubated for 60 mins by SEM analysis; assay type: functional, organism-based
Pseudomonas aeruginosa = experiment: Antibacterial activity against Pseudomonas aeruginosa ATCC BAA-427 incubated for 16 to 18 hrs by broth dilution assay; assay type: functional; details: time 16-18 hrs
Escherichia coli [25] = experiment: Bactericidal activity against Escherichia coli ATCC 25922 incubated for 16 to 18 hrs; assay type: functional; details: time 16-18 hrs

Drug uptake [1]: Active
Molecule: CC(C)C[C@H](NC(=O)[C@H](CCCNC(=N)N)NC(=O)CNC(=O)[C@H](CC(C)C)NC(=O)[C@H](CCCNC(=N)N)NC(=O)CNC(=O)[C@H](CC(C)C)NC(=O)[C@H](CCCNC(=N)N)NC(=O)CNC(=O)[C@H](CC(C)C)NC(=O)[C@H](CCCNC(=N)N)NC(=O)CNC(=O)[C@H](CC(C)C)NC(=O)[C@H](CCCNC(=N)N)NC(=O)CNC(=O)c1cc(C(=O)O)ccc1-c1c2ccc(=[N+](C)C)cc-2oc2cc(N(C)C)ccc12)C(=O)O.[Cl-] (HELM PEPTIDE1{[CN(C)c1ccc2c(-c3ccc(C(=O)O)cc3C(=O)[*:2])c3ccc(=[N+](C)C)cc-3oc2c1].G.R.L.G.R.L.G.R.L.G.R.L.G.R.L}$$$$V2.0)

Molecule: H-GRLGRLGRLGRLGRL-OH
MIC (Staphylococcus aureus [2]): 15.2 µM
Activity (Staphylococcus aureus [3]): inactive
MIC (Bacillus subtilis): 15.2 µM
Activity (Escherichia coli [4]): inactive
Activity (Staphylococcus aureus [5]): inactive
MIC (Staphylococcus aureus [6]): 3.8 µM
viability at 24 h, 100 µM [7]: > 80%
MIC (Escherichia coli [8]): 3.8 µM
Activity (Staphylococcus aureus [9]): inactive
MIC (Staphylococcus aureus [10]): 15.2 µM
Activity (Escherichia coli [11]): 100%
MBC (Staphylococcus aureus [12]): 7.6 µM
Activity (Escherichia coli [13]): inactive
MIC (Escherichia coli [14]): 15.2 µM
MIC (Klebsiella pneumoniae): 60.6 µM
Activity (Escherichia coli [15]): inactive
viability at 24 h, 100 µM [16]: > 80%
MIC [17]: 5 µM
HC50 at 40 min [18]: 2 mM
Retention_time [19]: 16.17 min
MIC (Staphylococcus aureus [20]): 15.2 µM
Activity [21]: Non-toxic
Activity (Staphylococcus aureus [22]): 100%
Activity (Escherichia coli [23]): inactive
Activity (Staphylococcus aureus [24]): inactive
MIC (Pseudomonas aeruginosa): 15.2 µM
MBC (Escherichia coli [25]): 15.2 µM

Source: ChEMBL document CHEMBL6087460, “Generating a Peptide Library Using the Repeats of Amino Acid Scaffolds Created by Sliding the Framework of a 7-mer Human Chemerin Segment and Discovery of Potent Antibacterial and Antimycobacterial Peptides” (J Med Chem, 2025)
